# Counter-ions that a name gives are not always drawn.
# Assays:
# [1] = test system: recombinant guanylate cyclase reporter cell line; experiment: Effect on a recombinant guanylate cyclase reporter cell line; assay type: cell-based; settings: minimum effective concentration; in some cases means of individual determinations; read-out: MEC
# Description: B-2. Effect on a Recombinant Guanylate Cyclase Reporter Cell Line
# The cellular activity of the compounds of the invention is determined using a recombinant guanylate cyclase reporter cell line, as described in F. Wunder et al., Anal. Biochem. 339, 104-112 (2005). Representative values (MEC=minimum effective concentration) for the compounds of the invention are shown in the table below (Table 1; in some cases as means of individual determinations): […]
# [2] = biological target: T1, human phosphodiesterase 5 (PDE 5) (Homo sapiens, UniProt O76074); experiment: Inhibition of human phosphodiesterase 5 (PDE 5); assay type: biochemical; settings: PDE 5 preparation from human platelets; in some cases means of individual determinations
# T1 construct: PDE 5 preparations are obtained from human platelets by disruption; from tissue; host or cells: human platelets
# Description: B-3. Inhibition of human phosphodiesterase 5 (PDE 5)
# PDE 5 preparations are obtained from human platelets by disruption (Microfluidizer®, 800 bar, 3 passes), followed by centrifugation (75 000 g, 60 min, 4° C.) and ion exchange chromatography of the supernatant on a Mono Q 10/10 column (linear sodium chloride gradient, elution with a 0.2-0.3M solution of sodium chloride in buffer (20 mM Hepes pH 7.2, 2 mM magnesium chloride). Fractions having PDE 5 activity are combined (PDE 5 preparation) and stored at −80° C.
# To determine their in vitro action on human PDE 5, the test substances are dissolved in 100% DMSO and serially diluted. Typically, dilution series (1:3) from 200 μM to 0.091 μM are prepared (resulting final concentrations in the test: 4 μM to 0.0018 μM). In each case 2 μl of the diluted substance solutions are placed into the wells of microtitre plates (Isoplate-96/200W; Perkin Elmer). Subsequently, 50 μl of a dilution of the above-described PDE 5 preparation are added. The dilution of the PDE 5 preparation is chosen such that during the later incubation less than 70% of the substrate are converted (typical dilution: 1:100; dilution buffer: 50 mM tris/hydrochloric acid pH 7.5, 8.3 mM magnesium chloride, 1.7 mM EDTA, 0.2% BSA). The substrate, [8-^3H] cyclic guanosine-3′,5′-monophosphate (1 μCi/μl; Perkin Elmer), is diluted 1:2000 with assay buffer (50 mM tris/hydrochloric acid pH 7.5, 8.3 mM magnesium chloride, 1.7 mM EDTA) to a concentration of 0.0005 μμCi/μl. By addition of 50 μl (0.025 μCi) of the diluted substrate, the enzyme reaction is finally started. The test mixtures are incubated at room temperature for 60 min and the reaction is stopped by adding 25 μl of a suspension of 18 mg/ml yttrium scintillation proximity beads in water (phosphodiesterase beads for SPA assays, RPNQ 0150, Perkin Elmer). The microtitre plates are sealed with a film and left to stand at room temperature for 60 min. Subsequently, the plates are analysed for 30 s per well in a Microbeta scintillation counter (Perkin Elmer). IC50 values are determined using the graphic plot of the substance concentration against percentage PDE 5 inhibition.
SMILES,IC50 [2] [nM],minimal effective concentration [1] [µM]
"CC1(C(F)(F)F)C(=O)Nc2nc(-c3nn(Cc4ncccc4F)c4ncc(F)cc34)nc(NCC(N)(CF)CF)c21 (single isomer, unassigned; ent-4) [Example 20, ent-4-{[2-Amino-3-fluoro-2-(fluoromethyl)propyl]amino}-2-{5-fluoro-1-[(3-fluoropyridin-2-yl)methyl]-1H-pyrazolo[3,4-b]pyridin-3-yl}-5-methyl-5-(trifluoromethyl)-5,7-dihydro-6H-pyrrolo[2,3-d]pyrimidin-6-one (Enantiomer B)]",120,0.65
"CC1(C)C(=O)Nc2nc(-c3nn(Cc4ccccc4F)c4cc(Cl)ccc34)nc(NCC(N)(CF)CF)c21 [Example 21, 4-{[2-Amino-3-fluoro-2-(fluoromethyl)propyl]amino}-2-[6-chloro-1-(2-fluorobenzyl)-1H-indazol-3-yl]-5,5-dimethyl-5,7-dihydro-6H-pyrrolo[2,3-d]pyrimidin-6-one trifluoroacetate]",–,0.3
"CC1(C(F)(F)F)C(=O)Nc2nc(-c3nn(Cc4ncccc4F)c4ncc(F)cc34)nc(NCC(N)(CF)CF)c21 (single isomer, unassigned; ent-4) [Example 19, ent-4-{[2-Amino-3-fluoro-2-(fluoromethyl)propyl]amino}-2-{5-fluoro-1-[(3-fluoropyridin-2-yl)methyl]-1H-pyrazolo[3,4-b]pyridin-3-yl}-5-methyl-5-(trifluoromethyl)-5,7-dihydro-6H-pyrrolo[2,3-d]pyrimidin-6-one (Enantiomer A)]",53,0.07
"Cc1nc2c(cc1F)c(-c1nc(NCC(N)(CF)CF)c3c(n1)NC(=O)C3(C)C(F)(F)F)nn2Cc1ccccc1F (single isomer, unassigned; ent-4) [Example 11, ent-4-{[2-Amino-3-fluoro-2-(fluoromethyl)propyl]amino}-2-[5-fluoro-1-(2-fluorobenzyl)-6-methyl-1H-pyrazolo[3,4-b]pyridin-3-yl]-5-methyl-5-(trifluoromethyl)-5,7-dihydro-6H-pyrrolo[2,3-d]pyrimidin-6-one (Enantiomer B)]",390,0.1
"CC1(C(F)(F)F)C(=O)Nc2nc(-c3nn(Cc4ncccc4F)c4ncc(F)cc34)nc(NCC(N)(CF)CF)c21 (racemic) [Example 18, rac-4-{[2-Amino-3-fluoro-2-(fluoromethyl)propyl]amino}-2-{5-fluoro-1-[(3-fluoropyridin-2-yl)methyl]-1H-pyrazolo[3,4-b]pyridin-3-yl}-5-methyl-5-(trifluoromethyl)-5,7-dihydro-6H-pyrrolo[2,3-d]pyrimidin-6-one]",100,0.1
"Cc1nc2c(cc1F)c(-c1nc(NCC(N)(CF)CF)c3c(n1)NC(=O)C3(C)C(F)(F)F)nn2Cc1ncccc1F (single isomer, unassigned; ent-4) [Example 17, ent-4-{[2-Amino-3-fluoro-2-(fluoromethyl)propyl]amino}-2-{5-fluoro-1-[(3-fluoropyridin-2-yl)methyl]-6-methyl-1H-pyrazolo[3,4-b]pyridin-3-yl}-5-methyl-5-(trifluoromethyl)-5,7-dihydro-6H-pyrrolo[2,3-d]pyrimidin-6-one (Enantiomer B)]",–,0.65
"Cc1nc2c(cc1F)c(-c1nc(NCC(N)(CF)CF)c3c(n1)NC(=O)C3(C)C(F)(F)F)nn2Cc1cccc(F)c1F (single isomer, unassigned; ent-4) [Example 8, ent-4-{[2-Amino-3-fluoro-2-(fluoromethyl)propyl]amino}-2-[1-(2,3-difluorobenzyl)-5-fluoro-6-methyl-1H-pyrazolo[3,4-b]pyridin-3-yl]-5-methyl-5-(trifluoromethyl)-5,7-dihydro-6H-pyrrolo[2,3-d]pyrimidin-6-one (Enantiomer B)]",120,0.1
"Cc1nc2c(cc1F)c(-c1nc(NCC(N)(CF)CF)c3c(n1)NC(=O)C3(C)C(F)(F)F)nn2Cc1ccccc1F (single isomer, unassigned; ent-4) [Example 10, ent-4-{[2-Amino-3-fluoro-2-(fluoromethyl)propyl]amino}-2-[5-fluoro-1-(2-fluorobenzyl)-6-methyl-1H-pyrazolo[3,4-b]pyridin-3-yl]-5-methyl-5-(trifluoromethyl)-5,7-dihydro-6H-pyrrolo[2,3-d]pyrimidin-6-one (Enantiomer A)]",290,0.2

# Continued, in another order:
IC50 [2] [nM],SMILES,minimal effective concentration [1] [µM]
100,"Cc1nc2c(cc1F)c(-c1nc(NCC(N)(CF)CF)c3c(n1)NC(=O)C3(C)C(F)(F)F)nn2Cc1ncccc1F (racemic) [Example 15, rac-4-{[2-Amino-3-fluoro-2-(fluoromethyl)propyl]amino}-2-{5-fluoro-1-[(3-fluoropyridin-2-yl)methyl]-6-methyl-1H-pyrazolo[3,4-b]pyridin-3-yl}-5-methyl-5-(trifluoromethyl)-5,7-dihydro-6H-pyrrolo[2,3-d]pyrimidin-6-one]",0.1
300,"Cc1nc2c(cc1F)c(-c1nc(NCC(N)(CF)CF)c3c(n1)NC(=O)C3(C)C(F)(F)F)nn2Cc1c(F)ccc(F)c1F (single isomer, unassigned; ent-4) [Example 13, ent-4-{[2-Amino-3-fluoro-2-(fluoromethyl)propyl]amino}-2-[5-fluoro-6-methyl-1-(2,3,6-trifluorobenzyl)-1H-pyrazolo[3,4-b]pyridin-3-yl]-5-methyl-5-(trifluoromethyl)-5,7-dihydro-6H-pyrrolo[2,3-d]pyrimidin-6-one (Enantiomer A)]",0.3
120,"Cc1nc2c(cc1F)c(-c1nc(NCC(N)(CF)CF)c3c(n1)NC(=O)C3(C)C(F)(F)F)nn2Cc1cccc(F)c1F (single isomer, unassigned; ent-4) [Example 7, ent-4-{[2-Amino-3-fluoro-2-(fluoromethyl)propyl]amino}-2-[1-(2,3-difluorobenzyl)-5-fluoro-6-methyl-1H-pyrazolo[3,4-b]pyridin-3-yl]-5-methyl-5-(trifluoromethyl)-5,7-dihydro-6H-pyrrolo[2,3-d]pyrimidin-6-one (Enantiomer A)]",0.3
32,"Cc1nc2c(cc1F)c(-c1nc(NCC(N)(CF)CF)c3c(n1)NC(=O)C3(C)C(F)(F)F)nn2Cc1cccc(F)c1F (racemic) [Example 6, rac-4-{[2-Amino-3-fluoro-2-(fluoromethyl)propyl]amino}-2-[1-(2,3-difluorobenzyl)-5-fluoro-6-methyl-1H-pyrazolo[3,4-b]pyridin-3-yl]-5-methyl-5-(trifluoromethyl)-5,7-dihydro-6H-pyrrolo[2,3-d]pyrimidin-6-one]",0.1
57,"Cc1nc2c(cc1F)c(-c1nc(NCC(N)(CF)CF)c3c(n1)NC(=O)C3(C)C(F)(F)F)nn2Cc1ncccc1F (single isomer, unassigned; ent-4) [Example 16, ent-4-{[2-Amino-3-fluoro-2-(fluoromethyl)propyl]amino}-2-{5-fluoro-1-[(3-fluoropyridin-2-yl)methyl]-6-methyl-1H-pyrazolo[3,4-b]pyridin-3-yl}-5-methyl-5-(trifluoromethyl)-5,7-dihydro-6H-pyrrolo[2,3-d]pyrimidin-6-one (Enantiomer A)]",0.07
100,"Cc1nc2c(cc1F)c(-c1nc(NCC(N)(CF)CF)c3c(n1)NC(=O)C3(C)C(F)(F)F)nn2Cc1c(F)ccc(F)c1F (single isomer, unassigned; ent-4) [Example 14, ent-4-{[2-Amino-3-fluoro-2-(fluoromethyl)propyl]amino}-2-[5-fluoro-6-methyl-1-(2,3,6-trifluorobenzyl)-1H-pyrazolo[3,4-b]pyridin-3-yl]-5-methyl-5-(trifluoromethyl)-5,7-dihydro-6H-pyrrolo[2,3-d]pyrimidin-6-one (Enantiomer B)]",0.1

# — US20170240566A1, “AMINO-SUBSTITUTED ANNULATED PYRIMIDINES AND USE THEREOF” (Bayer Pharma Aktiengesellschaft, priority 2014, published 2017)
